In a melting point compilation (Tetko et al.; mined from patent text by program, amines drawn as free bases though some values may be those of a salt):

melting point	Structure (SMILES)
238 to 240 °C	O=C(CN1CCC(OCc2ccccc2)CC1)Nc1ccc2c(c1)OCC(=O)N2
235 to 240 °C	CCc1noc(-c2cc3c(cn2)[nH]c2ccc(N(C)C)cc23)n1
> 250 °C	N#Cc1cc(C2=Nc3cc(O)c(-c4ccccc4F)cc3NC(=O)C2)ccn1
205 to 206 °C	CC12C=CC(=O)C=C1CCC1C2=CCC2(C)C1CCC2(O)C(=O)CCl (stereo not drawn)
165 to 169 °C	COc1cc(OC)nc(Oc2nccc(-c3ccccc3)c2C(=O)O)n1
157 to 160 °C	CCC(CC)N(C[C@@H]1CCC[C@H](CN(C(=O)Nc2ccc(N(C)C)cc2)C(CC)CC)C1)C(=O)Nc1ccc(N(C)C)cc1
208 to 210 °C	Cn1ccc(=S)c2ccccc21
154 °C	CCC1CC(=O)N(Cc2ccc(C(=O)NC3CCCC3)cc2)N=C1c1ccc(OC)c(OC)c1 (stereo not drawn)
144 to 146 °C	COc1ccc(-c2ocnc2-c2cc(OC)c(O)c(OC)c2)cc1O
> 275 °C	O=c1c2ccccc2nc(-c2sc(Nc3ccc(Cl)cc3)nc2-c2ccccc2)n1-c1ccccc1
117 to 119 °C	COC(=O)[C@H](C)N(C(=O)[C@H](CC(C)C)NC(=O)OC(C)(C)C)c1ccc(Cl)c(Cl)c1
238 °C	CNC(=O)Cn1c(-c2ccc(Cl)cc2)nc2cccnc21
150 °C	CCN(CC)C(=O)c1c(C(=O)c2cc3cnccc3n2S(=O)(=O)c2ccccc2)ccnc1OC
148 to 149 °C	Cc1oc(-c2ccc(C(F)(F)F)cc2)nc1-c1cccc(-c2ccc(OC(Cc3ccccc3)C(=O)O)cc2)c1 (stereo not drawn)
239 to 240 °C	Cc1nnc(-c2nsc3ccc([N+](=O)[O-])cc23)s1
119 to 121 °C	Cc1c(Cl)cccc1C(=N)NO
272 °C	Cc1cccc(C)c1CNc1cc(C(N)=O)cc2c1nc(C)n2C
247 to 248 °C	COc1cc(NC(=O)c2ccccc2Cl)ccc1C(=O)N1CCCC(OCCS(=O)(=O)c2ncc[nH]2)c2cc(Cl)ccc21 (stereo not drawn)
196 to 197 °C	CCn1c(=O)c2c(nc(/C=C/c3ccc(OC)c(C)c3OC)n2C)n(CC)c1=O
167 to 171 °C	COc1cc2c(cc1OCCN(C)C)N(C(=O)c1ccc(-c3ccc(C#N)cc3C)cc1)CC2
255 to 257 °C	Cc1ccc(Cl)c(Nc2ccccc2-c2nnc(N)o2)c1Cl
175 to 176 °C	CCCc1c(C(=O)NCc2ccc3c(Br)c(OCC#N)ccc3c2)cnn1-c1ccccc1
238 °C	C[C@H](O)CNc1cc(Oc2ccc(F)cc2F)nc2[nH]nc(-c3ccccc3Cl)c12
121 to 123 °C	CS(=O)(=O)c1ccc(-c2cnn(CC(F)(F)F)c(=O)c2OCc2ccccc2)cc1

melting point	Structure (SMILES)
> 310 °C	O=C1c2ccccc2C(=O)c2c1oc1cc(O)ccc21
148 °C	CC(=O)c1ccc(N2C(=O)C(=O)N(c3cccc(Cl)c3)C2=O)cc1
94 to 96 °C	CCOC(=O)C(Cc1ccc(NCc2ccc3cc(OS(C)(=O)=O)ccc3c2)cc1)OC (stereo not drawn)
216 to 217 °C	CCCN(c1ccc(C(F)(F)F)cc1)c1nc(=O)c2cccnc2s1
98 to 100 °C	CCc1cc(C)cc(CC)c1C(C(=O)NC)C(=O)NC
230 to 231 °C	O=C(O)C1CNC(C(=O)O)c2[nH]c3ccccc3c21 (stereo not drawn)
152 to 153 °C	COC(=O)c1cc(Br)cc(Cl)c1NC(C)=O
> 300 °C	O=C1NC(=O)c2nc3ccccc3cc21
148 to 152 °C	Cc1cccc(C)c1N(CCC(C)N1C(=O)c2ccccc2C1=O)S(C)(=O)=O (stereo not drawn)
78 to 79 °C	COCC1CN(c2ccc(C3CCC(OC(C)=O)CC3)cc2)C(=O)O1 (racemic)
97.5 to 99 °C	O=[N+]([O-])c1ccc(NCc2ccccc2)c(F)c1
156 to 159 °C	COC(=O)c1ccc2c(c1)NC(=O)C(C)O2 (stereo not drawn)
307 to 310 °C	Cn1c2ccccc2c(=O)n2nc(C#N)cc12
129 °C	Cc1cc(C=O)c2cccc(OCc3ccccc3)c2n1
96 to 99 °C	CC(=O)NCCNC(=O)c1ccccn1
126 to 132 °C	CCCCOc1cc2ncnc(N3CCc4ccc(Cl)cc43)c2cc1OC
123 to 125 °C	CNC(=O)CC1CN=C(c2cc3cc(Oc4ccc(S(C)(=O)=O)cn4)cc(OC(COC)COC)c3[nH]2)S1 (stereo not drawn)
88 to 90 °C	CC(C)C(C(=O)O)c1ccc(OC(F)F)c([N+](=O)[O-])c1 (stereo not drawn)
104 to 105 °C	CC(F)(F)CC(Br)c1ccccc1S(N)(=O)=O (stereo not drawn)
78 to 80 °C	CCN(c1ccccc1C)S(=O)(=O)c1cc([N+](=O)[O-])ccc1C
143 to 144 °C	CCOC(=O)CCc1cn(Cc2ccc(O)cc2)nc1O
133 °C	Clc1cc2ccccc2c(N2CCSCC2)n1
55.4 to 56.9 °C	COc1ccc(-c2nn(CC=Cc3ccc(F)cc3F)c(=O)cc2-c2ccncc2)cc1
178 to 179 °C	Cc1nn(-c2ccc(F)cc2)cc1C(=O)Nc1ccc(CC(C)C)c(C#N)c1

melting point	Structure (SMILES)
108 °C	COc1cccc(NC=C2C(=O)OC(C)(C)OC2=O)c1
130 to 131 °C	COc1ccc(Cl)cc1CC1CNC(=O)CN(C(=O)Nc2cccc(NC(C)=O)c2)C1=O (stereo not drawn)
150 to 152 °C	CC(C)(C)Nc1ccccc1C(CCC1CCCCC1)C(=O)c1cccc(Cl)c1 (stereo not drawn)
180 to 181 °C	COC(=O)c1cc(-c2ccccc2)c(=O)n2c1-c1sccc1CN2C
195 to 199 °C	COc1c(Cl)c(F)cc2c(=O)c(C(=O)O)cn(C3CC3)c12
94 to 97 °C	O=C1NCCN1CCN1CCN([C@@H]2C[C@@H](c3ccc(F)cc3)c3ccccc32)CC1
220 to 222 °C	CC(C)c1ccc(-c2csc(-c3cccc(C(=O)O)c3)c2)cc1
211 to 212 °C	CC(C)(C)OC(=O)NCCCn1c2c(c3ccc(NC(=O)CC(=O)O)cc3c1=O)C(=O)c1ccccc1-2
125 to 127 °C	CC(=O)OC1CCCc2cnc3ccc(OCc4ccccc4[N+](=O)[O-])cc3c21 (stereo not drawn)
70 to 80 °C	O=C(c1ccc(F)cc1)N1CCN(CC(O)Cn2c3ccccc3c3ccccc32)CC1 (stereo not drawn)
189 to 191 °C	CCCc1nc2c(N)nc3ccc(-c4cccc(CN)c4)cc3c2s1
118 to 121 °C	Cc1cc([N+](=O)[O-])ccc1C(=O)N=CN(C)C
171 to 176 °C	CS(=O)(=O)c1ccc(C(=O)Nc2ccc(-n3nc(C4CC4)cc3C3CC3)cc2)cc1
187 °C	COC(=O)c1ccc(CN2CCOc3cc4c(cc32)C(C)(C)CCC4(C)C)cc1
125 °C	Nc1ccc2c(c1)C(=O)CC21CCCC1
173 to 174 °C	CNc1nc2ccccc2c(-c2ccccc2)c1C(=O)N(C)Cc1cc(C(F)(F)F)cc(C(F)(F)F)c1
284 to 287 °C	O=C1Nc2cccc(Cl)c2C(=O)N2C[C@H](O)C[C@@H]12
128 to 130 °C	CCCc1c(OCC(=O)O)ccc(C(C)=O)c1O
150 to 151 °C	CS(=O)(=O)O[C@@H]1C[C@@H](C(N)=O)N(C(=O)OCc2ccc([N+](=O)[O-])cc2)C1
107 to 109 °C	COC(=O)C1(N(OC2CCCO2)C(=O)Cc2c(C)cc(C)cc2C)CCN(OC)CC1 (stereo not drawn)
95 to 97 °C	CCCCc1noc(-c2ccc(C(=O)NCCC(C)(C)C)cc2)n1
174 °C	O=S(=O)(NC1CCC(O)CC1)c1cccc2ccccc12 (stereo not drawn)
185 to 187 °C	CCS(=O)c1cc2c(cc1OC)CCn1c-2cc2c1C(=O)N(C(C)(C)C)CCCC2 (stereo not drawn)
123 to 125 °C	Cc1cccc(OCC(O)CN2C(=O)C3CCCN3c3ncccc32)c1C (stereo not drawn)

melting point	Structure (SMILES)
75 °C	OCCCc1cn(Cc2ccccc2)c2ccccc12
150 to 152 °C	COc1cccc(C(O)CN(C)Cc2sc3c(=O)c(C(=O)NCc4ccc(Cl)cc4)cn(C)c3c2COCC[Si](C)(C)C)c1 (stereo not drawn)
74.5 to 75.5 °C	CCOc1ccc(C=O)cc1CCl
161 °C	CN(C)c1ccc2ccc(=O)oc2c1
139 to 142 °C	O=C(N(CCN(C(=O)C(F)(F)F)c1cccc2[nH]cc(Cl)c12)Cc1ccccc1)C(F)(F)F
139 °C	COc1cc(Nc2nccc(Nc3ccc(OCC(=O)OC(C)(C)C)cc3)n2)cc(OC)c1OC
284 °C	CC(C)(C#N)c1cc(O)cc2cc(-c3ccc(O)cc3)oc12
64 °C	O=S(=O)(Cl)c1cncc(Br)c1
77 to 81 °C	CCC[C@H]1C=C(C(=O)OCC)OC(=O)[C@H]1Cc1ccccc1
180 °C	CCNC(=O)CN(c1c(Cc2c(F)cccc2F)cccc1OC)S(=O)(=O)c1ccc(OC)c(OC)c1
187 to 188 °C	CCOC(=O)C1=C(CO)NC=C(C(=O)OC)C1c1ccccc1Cl (stereo not drawn)
161 to 163 °C	CCC(=O)N=C(NC(=O)OC)Nc1cc(Oc2ccccc2)ccc1NC(C)=O
114 °C	NCC(=O)N[C@@H]1CN2C(=O)N(c3cc(Cl)nc(Cl)c3)C(=O)[C@@]2(Cc2ccc(OC(F)(F)F)cc2)C1
122 to 124 °C	Cc1ccnc(C)c1NC(=O)NCCCl
166 to 167 °C	c1ccc(-c2nn3ccccc3c2-c2ccncc2)cc1
124 to 128 °C	CCOCc1cc(COc2cc(CCC(=O)O)n(-c3ccccc3)n2)cc(Oc2ncc(C(F)(F)F)cc2Cl)c1
221 to 227 °C	Cn1c(COc2cccc(C(=O)O)c2)nc2ccc(Oc3cccc(OC(F)(F)F)c3)cc21
143 to 144 °C	CCOc1cc2c(cc1O)C(C(Cl)(Cl)Cl)OC2=O (stereo not drawn)
69 to 70 °C	CCCCc1noc(-c2sccc2N)n1
146 to 148 °C	CN=C(NC#N)NCCSCc1ncccc1O
70 to 72 °C	NS(=O)(=O)c1ccc(CCO)s1
238 to 240 °C	Cc1cc(C)c2cc(N)c(=O)[nH]c2n1
276 to 278 °C	C=C1SC(=O)N(c2ccc3cc(-c4ccc(O)c(C(C)(C)C)c4)ccc3c2)C1=O

Structure (SMILES)	melting point
CN(C)C1(c2cccc(F)c2)CC=C(c2[nH]c3ccccc3c2CCc2ccncc2)CC1 (stereo not drawn)	194 to 198 °C
CN(C)C1(Cc2ccccc2)CCC(O)(c2cc3ccccc3s2)CC1 (stereo not drawn)	128 to 131 °C
CCc1cc(CNc2nc3ccccc3o2)c(=O)[nH]c1C	211 to 213 °C
